From PubChem BioAssay AID330 (DTP/NCI, 2004)
Where “and” joins values, the source holds several entries; their conditions need not be identical. Equal values may be shown once. Toxic doses and inconclusive results are not listed.

Test system: P388 leukemia ip, CD2F1 mice, survival T/C
Experiment: NCI In Vivo Anticancer Drug Screen. Data for tumor model P388 Leukemia (intraperitoneal) in CD2F1 (CDF1) mice
Conditions: endpoint: median survival time, higher = longer survival
Summary of the method: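 Mice carrying the transplanted tumor received test compound or vehicle. Survival was recorded in each group, and the value is the treated-group measurement divided by that of the vehicle-treated control group.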

[1] = dose: 50.0 mg/kg/injection, schedule: Q01DX005 (ip), vehicle: Klucel (hydroxypropylcellulose) (HPC)
[2] = dose: 100.0 mg/kg/injection, schedule: Q01DX005 (ip), vehicle: Klucel (hydroxypropylcellulose) (HPC)
[3] = dose: 200.0 mg/kg/injection, schedule: Q01DX005 (ip), vehicle: Klucel (hydroxypropylcellulose) (HPC)
[4] = dose: 60.0 mg/kg/injection, schedule: Q01DX005 (ip), vehicle: saline with Tween-80
[5] = dose: 120.0 mg/kg/injection, schedule: Q01DX005 (ip), vehicle: saline with Tween-80
[6] = dose: 240.0 mg/kg/injection, schedule: Q01DX005 (ip), vehicle: saline with Tween-80
[7] = dose: 100.0 mg/kg/injection, schedule: Q04DX003 (ip), vehicle: Klucel (hydroxypropylcellulose) (HPC)
[8] = dose: 200.0 mg/kg/injection, schedule: Q04DX003 (ip), vehicle: Klucel (hydroxypropylcellulose) (HPC)
[9] = dose: 400.0 mg/kg/injection, schedule: Q04DX003 (ip), vehicle: Klucel (hydroxypropylcellulose) (HPC)
[10] = dose: 50.0 mg/kg/injection, schedule: Q01DX005 (ip), vehicle: saline with Tween-80
[11] = dose: 100.0 mg/kg/injection, schedule: Q01DX005 (ip), vehicle: saline with Tween-80

C[n+]1c2ccccc2c(Oc2c3ccccc3[n+](C)c3ccccc23)c2ccccc21
T/C (dose: 60.0 mg/kg/injection, schedule: Q01DX005 (ip), vehicle: Klucel (hydroxypropylcellulose) (HPC)): 91 % of control
T/C (dose: 120.0 mg/kg/injection, schedule: Q01DX005 (ip), vehicle: Klucel (hydroxypropylcellulose) (HPC)): 93 % of control
T/C (dose: 240.0 mg/kg/injection, schedule: Q01DX005 (ip), vehicle: Klucel (hydroxypropylcellulose) (HPC)): 100 % of control

Cn1ccnc1Sc1ccccn1
T/C (dose: 60.0 mg/kg/injection, schedule: Q01DX005 (ip), vehicle: saline): 104 % of control
T/C (dose: 120.0 mg/kg/injection, schedule: Q01DX005 (ip), vehicle: saline): 107 % of control
T/C (dose: 240.0 mg/kg/injection, schedule: Q01DX005 (ip), vehicle: saline): 89 % of control

CC1(C)OC2OC3C(CNCCO)OC(c4ccccc4)OC3C2O1 (stereo not given)
T/C [1]: 107 % of control
T/C [2]: 108 % of control
T/C [3]: 101 % of control

c1ccc(Cc2csc3nc4ccccc4n23)cc1
T/C [4]: 100 % of control
T/C [5]: 109 % of control
T/C [6]: 99 % of control

C=C(C)/C(=C/C(=O)OCC)Sc1ccccc1
T/C [7]: 106 % of control
T/C [8]: 106 % of control
T/C [9]: 102 % of control

O=C(c1ncccc1O)N1CCCCC1
T/C (dose: 12.5 mg/kg/injection, schedule: Q01DX009 (ip), vehicle: distilled water + Tween-80): 88 % of control
T/C (dose: 50.0 mg/kg/injection, schedule: Q01DX009 (ip), vehicle: distilled water + Tween-80): 92 % of control
T/C (dose: 100.0 mg/kg/injection, schedule: Q01DX009 (ip), vehicle: distilled water + Tween-80): 99 % of control
T/C (dose: 200.0 mg/kg/injection, schedule: Q01DX009 (ip), vehicle: distilled water + Tween-80): 100 % of control

CCN(CC)CCOC(=O)C(C)c1cccc2c(=O)cc(-c3ccccc3)oc12 (stereo not given)
T/C [1]: 90 % of control
T/C [2]: 101 % of control
T/C [3]: 101 % of control

[Br][Sn]([CH2][Sn]([Br])([c]1ccccc1)[c]1ccccc1)([c]1ccccc1)[c]1ccccc1
T/C (dose: 6.25 mg/kg/injection, schedule: Q01DX005 (ip), vehicle: Klucel (hydroxypropylcellulose) (HPC)): 110 % of control

COc1ccc2c(c1)nnn2C(=O)/C=C/c1ccccc1
T/C (dose: 12.5 mg/kg/injection, schedule: Q01DX009 (ip), vehicle: saline with Tween-80): 94 % of control
T/C (dose: 25.0 mg/kg/injection, schedule: Q01DX009 (ip), vehicle: saline with Tween-80): 107 % of control
T/C (dose: 50.0 mg/kg/injection, schedule: Q01DX009 (ip), vehicle: saline with Tween-80): 101 % of control and 104 % of control

CC/C(=N\NC(=S)SC)c1ccccn1
T/C (dose: 6.25 mg/kg/injection, schedule: Q01DX005 (ip), vehicle: saline with Tween-80): 106 % of control
T/C (dose: 12.5 mg/kg/injection, schedule: Q01DX005 (ip), vehicle: saline with Tween-80): 94 % of control and 96 % of control and 97 % of control
T/C (dose: 25.0 mg/kg/injection, schedule: Q01DX005 (ip), vehicle: saline with Tween-80): 105 % of control and 110 % of control and 94 % of control

CN1CCN(CC(O)COc2c3ccccc3nc3ccccc23)CC1 (stereo not given)
T/C [10]: 104 % of control
T/C [11]: 95 % of control

Cc1ccc(-c2cn3c(n2)SCC3)cc1
T/C [7]: 99 % of control
T/C [8]: 106 % of control
T/C [9]: 99 % of control

N#CN=[N+]([O-])c1cccc([N+](=O)[O-])c1
T/C (dose: 6.25 mg/kg/injection, schedule: Q04DX003 (ip), vehicle: Klucel (hydroxypropylcellulose) (HPC)): 106 % of control
T/C (dose: 12.5 mg/kg/injection, schedule: Q04DX003 (ip), vehicle: Klucel (hydroxypropylcellulose) (HPC)): 89 % of control

CC1OC(n2cc(F)c(=O)[nH]c2=O)CC1O (stereo not given)
T/C (dose: 50.0 mg/kg/injection, schedule: Q01DX001 (ip), vehicle: saline): 104 % of control
T/C (dose: 100.0 mg/kg/injection, schedule: Q01DX001 (ip), vehicle: saline): 106 % of control
T/C (dose: 200.0 mg/kg/injection, schedule: Q01DX001 (ip), vehicle: saline): 105 % of control

COc1cc(/C=C/C(=O)c2ccccc2O)cc(OC)c1OC
T/C [10]: 97 % of control
T/C [11]: 110 % of control
T/C (dose: 200.0 mg/kg/injection, schedule: Q01DX005 (ip), vehicle: saline with Tween-80): 97 % of control

N#CC(C(=O)C(=O)Nc1cccc(C(F)(F)F)c1)c1ccc(Cl)cc1Cl (stereo not given)
T/C [4]: 94 % of control
T/C [5]: 91 % of control
T/C [6]: 92 % of control
